# Patent EP2050748A1, “Novel fused pyrimidines” (Bayer Schering Pharma Aktiengesellschaft, priority 2007, dated 2009)
# Tested on: OvCAR3 cells
# Assay: Cellular proliferation / Cytotoxicity assay (Alamar Blue)
# Type: cell-based
# Details: Homo sapiens, OVCAR-3, 48h incubation, Alamar Blue (Resazurin) cell viability, read-out: Anti-proliferative / Cytotoxic activity (OvCAR3 cells)
# Protocol: The anti-proliferative activity of the compounds as described herein, is evaluated using the OvCAR3, HCT116 and A549 cell lines and the Alamar Blue (Resazurin) cell viability assay (O'Brien et al. Eur J Biochem 267, 5421-5426, 2000). Resazurin is reduced to the fluorescent resorufin by cellular dehydrogenase activity, correlating with viable, proliferating cells. Test compounds are dissolved as 10 mM solutions in DMSO and subsequently diluted. Cells like HCT116 or A549 cells were seeded into 96 well flat bottom plates at a density of 10000 cells/well (OvCAR3 cells), 1000 cells/well (HCT116 cells) or 2000 cells/well (A549 cells) in a volume of 200 µl/well. 24 hours after seeding, 1 µl each of the compound dilutions are added into each well of the 96 well plates. Each compound dilution is tested as at least as duplicates. Wells containing untreated control cells were filled with 200 µl DMEM (Dulbecco's Modified Eagle Medium) containing 0.5vol% v:v DMSO. The cells are then incubated with the substances for 48h at 37°C in a humidified atmosphere containing 5vol% CO2. To determine the viability of the cells, 20 µl of a Resazurin solution (90mg / l) are added. After 4h incubation at 37°C, the fluorescence is measured by extinction at ? = 544 nm and an emission of ? = 590 nm (Wallac Victor2; Perkin Elmer, USA). For the calculation of the cell viability, the emission value from untreated cells is set as 100% viability and the fluorescence intensity of treated cells are set in relation to the values of untreated cells. Viabilities are expressed as % values. The corresponding IC50 values of the compounds for cytotoxic activity are determined from the concentration-effect curves by means of non-linear regression. The analysis of the data is performed using a biostatistical program (GraphPad Prism, USA). Representative IC50 values for anti-proliferative / cytotoxic potency determined in the aforementioned assay follow from the following table, in which the numbers of the compound correspond to the numbers of the examples.
row,SMILES,IC50 [nM]
1,"c1ccc(-c2cn3ccnc3nc2-c2ccc(CN3CCC(c4nc(-c5ccccn5)n[nH]4)CC3)cc2)cc1 [Example 1, 6-phenyl-7-(4-{[4-(3-pyridin-2-yl-1,2,4-triazol-5-yl)piperidin-1-yl]methyl}phenyl)imidazo[1,2-a]pyrimidine]",> 1000
2,"c1ccc(-c2cn3ncnc3nc2-c2ccc(CN3CCC(c4n[nH]c(-c5ccccn5)n4)CC3)cc2)cc1 [Example 2, 6-phenyl-5-(4-([4-(5-pyridin-2-yl-1,2,4-triazol-3-yl)piperidin-1-yl]methyl}phenyl)[1,2,4]triazolo[1,5-a]pyrimidine]",> 1000
3,"Cc1nc2nc(-c3ccc(CN4CCC(c5n[nH]c(-c6ccccn6)n5)CC4)cc3)c(-c3ccccc3)cn2n1 [Example 3, 2-methyl-6-phenyl-5-(4-{[4-(5-pyridin-2-yl-1,2,4-triazol-3-yl)piperidin-1-yl]methyl}phenyl)[1,2,4]triazolo[1,5-a]pyrimidine]",< 1000
4,"c1ccc(-c2cn3nc(C4CC4)nc3nc2-c2ccc(CN3CCC(c4n[nH]c(-c5ccccn5)n4)CC3)cc2)cc1 [Example 4, 2-cyclopropyl-6-phenyl-5-(4-{[4-(5-pyridin-2-yl-1,2,4-triazol-3-yl)piperidin-1-yl]methyl}phenyl)[1,2,4]triazolo[1,5-a]pyrimidine]",< 1000
5,"c1ccc(-c2cn3ccnc3nc2-c2ccc(CN3CCC(c4cc(-c5ccccn5)n[nH]4)CC3)cc2)cc1 [Example 5, 6-phenyl-7-(4-{[4-(3-pyridin-2-yl-pyrazol-5-yl)piperidin-1-yl]methyl}phenyl)imidazo[1,2-a]pyrimidine]",> 1000
6,"c1ccc(-c2cn3ccnc3nc2-c2ccc(CN3CCC(c4n[nH]c(-c5ccncc5)n4)CC3)cc2)cc1 [Example 6, 6-phenyl-7-(4-{[4-(5-pyridin-4-yl-1,2,4-triazol-3-yl)piperidin-1-yl]methyl}phenyl)imidazo[1,2-a]pyrimidine]",> 1000
7,"c1ccc(-c2cn3nc(C4CCC4)nc3nc2-c2ccc(CN3CCC(c4n[nH]c(-c5ccccn5)n4)CC3)cc2)cc1 [Example 7, 2-cyclobutyl-6-phenyl-5-(4-{[4-(5-pyridin-2-yl-1,2,4-triazol-3-yl)piperidin-1-yl]methyl}phenyl)[1,2,4]triazolo[1,5-a]pyrimidine]",< 1000
8,"N#Cc1cnc2nc(-c3ccc(CN4CCC(c5n[nH]c(-c6ccccn6)n5)CC4)cc3)c(-c3ccccc3)cn12 [Example 8, 6-phenyl-7-(4-{[4-(5-pyridin-2-yl-1,2,4-triazol-3-yl)piperidin-1-yl]methyl}phenyl)imidazo[1,2-a]pyrimidine-3-carbonitrile]",> 1000
9,"Fc1cnc2nc(-c3ccc(CN4CCC(c5n[nH]c(-c6ccccn6)n5)CC4)cc3)c(-c3ccccc3)cn12 [Example 9, 3-fluoro-6-phenyl-7-(4-{[4-(5-pyridin-2-yl-1H-1,2,4-triazol-3-yl)piperidin-1-yl]methyl}phenyl)imidazo[1,2-a]pyrimidine]",< 1000
10,"CNc1c(-c2ccccc2)c(-c2ccc(CN3CCC(c4n[nH]c(-c5ccccn5)n4)CC3)cc2)nc2nccn12 [Example 10, N-methyl-6-phenyl-7-(4-{[4-(5-pyridin-2-yl-1,2,4-triazol-3-yl)piperidin-1-yl]methyl}phenyl)imidazo[1,2-a]pyrimidin-5-amine]",> 1000
11,"Brc1cnc2nc(-c3ccc(CN4CCC(c5n[nH]c(-c6ccccn6)n5)CC4)cc3)c(-c3ccccc3)cn12 [Example 11, 3-bromo-6-phenyl-7-(4-{[4-(5-pyridin-2-yl-1,2,4-triazol-3-yl)piperidin-1-yl]methyl}phenyl)imidazo[1,2-a]pyrimidine]",< 1000
12,"Clc1cnc2nc(-c3ccc(CN4CCC(c5n[nH]c(-c6ccccn6)n5)CC4)cc3)c(-c3ccccc3)cn12 [Example 12, 3-chloro-6-phenyl-7-(4-{[4-(5-pyridin-2-yl-1,2,4-triazol-3-yl)piperidin-1-yl]methyl}phenyl)imidazo[1,2-a]pyrimidine]",< 1000
13,"C#Cc1cnc2nc(-c3ccc(CN4CCC(c5n[nH]c(-c6ccccn6)n5)CC4)cc3)c(-c3ccccc3)cn12 [Example 13, 3-ethynyl-6-phenyl-7-(4-{[4-(5-pyridin-2-yl-1,2,4-triazol-3-yl)piperidin-1-yl]methyl}phenyl)imidazo[1,2-a]pyrimidine]",< 1000
14,"Cc1cnc2nc(-c3ccc(CN4CCC(c5n[nH]c(-c6ccccn6)n5)CC4)cc3)c(-c3ccccc3)cn12 [Example 14, 3-methyl-6-phenyl-7-(4-{[4-(5-pyridin-2-yl-1,2,4-triazol-3-yl)piperidin-1-yl]methyl}phenyl)imidazo[1,2-a]pyrimidine]",< 1000
15,"C=Cc1cnc2nc(-c3ccc(CN4CCC(c5n[nH]c(-c6ccccn6)n5)CC4)cc3)c(-c3ccccc3)cn12 [Example 15, 6-phenyl-7-(4-{[4-(5-pyridin-2-yl-1,2,4-triazol-3-yl)piperidin-1-yl]methyl}phenyl)-3-vinylimidazo[1,2-a]pyrimidine]",< 1000
16,"CCc1cn2cc(-c3ccccc3)c(-c3ccc(CN4CCC(c5n[nH]c(-c6ccccn6)n5)CC4)cc3)nc2n1 [Example 17, 2-ethyl-6-phenyl-7-(4-{[4-(5-pyridin-2-yl-1,2,4-triazol-3-yl)piperidin-1-yl]methyl}phenyl)imidazo[1,2-a]pyrimidine]",< 1000
17,"c1ccc(-c2cn3ccnc3nc2-c2ccc(CN3CCC(c4n[nH]c(-c5ncccn5)n4)CC3)cc2)cc1 [Example 18, 6-phenyl-7-(4-{[4-(5-pyrimidin-2-yl-1,2,4-triazol-3-yl)piperidin-1-yl]methyl}phenyl)imidazo[1,2-a]pyrimidine]",> 1000
18,"c1ccc(-c2cn3nccc3nc2-c2ccc(CN3CCC(c4n[nH]c(-c5ccccn5)n4)CC3)cc2)cc1 [Example 19, 6-phenyl-5-(4-{[4-(5-pyridin-2-yl-1,2,4-triazol-3-yl)piperidin-1-yl]methyl}phenyl)pyrazolo[1,5-a]pyrimidine]",< 1000
19,"c1ccc(-c2cn3ccnc3nc2-c2ccc(CN3CCC(n4cnc(-c5ccccn5)c4)CC3)cc2)cc1 [Example 20, 6-phenyl-7-(4-{[4-(4-pyridin-2-yl-imidazol-1-yl)piperidin-1-yl]methyl}phenyl)imidazo[1,2-a]pyrimidine]",> 1000
20,"c1ccc(-c2cn3ccnc3nc2-c2ccc(CN3CCC(c4n[nH]c(-c5cnccn5)n4)CC3)cc2)cc1 [Example 21, 6-phenyl-7-(4-{[4-(5-pyrazin-2-yl-1,2,4-triazol-3-yl)piperidin-1-yl]methyl}phenyl)imidazo[1,2-a]pyrimidine]",> 1000
21,"CCc1cnc2nc(-c3ccc(CN4CCC(c5n[nH]c(-c6ccccn6)n5)CC4)cc3)c(-c3ccccc3)cn12 [Example 22, 3-ethyl-6-phenyl-7-(4-{[4-(5-pyridin-2-yl-1,2,4-triazol-3-yl)piperidin-1-yl]methyl}phenyl)imidazo[1,2-a]pyrimidine]",< 1000
